Results published in US7217794B2, “Compounds and methods for treatment of thrombosis” (Daiamed, Inc., priority 2003, dated 2007).
Read-outs that look alike come from different tables or passages of the source.

Experiments:
[1] = tested on: venous thrombosis; experiment: Rat venous thrombosis model (stenosis of inferior vena cava with hypotonic saline infusion); format: in vivo
Description: Compound 22 was administered as a continuous intravenous infusion via the femoral vein commenced 15 minutes prior to the thrombotic challenge. Thrombus mass was assessed at 60 minutes following challenge. Results are expressed as the percentage of the vehicle mean.
Briefly, male Sprague-Dawley rats (300–400 g) were anesthetized using ketamine/xylazine I.M. A midline laparotomy was performed, and the vena cava was visualized and gently separated from the descending aorta using cotton swabs. Both iliolumbar veins were ligated with suture (3–0 silk). A loose ligature (3–0 silk) was placed around the vena cava distal to the renal veins. A 25G butterfly bent at a 90-degree angle and attached to a 5 cc syringe filled with 2.5 mL of hypotonic saline (0.225%) was inserted into the vena cava at the level of the iliolumbar veins and glued into place using VETBOND™. A 26G needle bent to a 90-degree angle was then tied tightly to the vena cava, using the loose ligature. An atraumatic clamp was placed on the vena cava proximal to the iliac bifurcation, and the hypotonic saline manually infused at a rate of 10 mL/minutes. The atraumatic clamp was removed, along with the 26G needle, creating a 26G stenosis. Organs were carefully replaced, and animals were kept normothermic until sacrifice. Animals were sacrificed by anesthetic overdose at 10 or 60 minutes post thrombus induction. Following sacrifice, the vena cava was isolated using hemostats, and the clot(s) was dissected out. Clots were removed, blotted on gauze, and then immediately weighed using an analytical balance.
Compounds under investigation along with vehicles and positive controls (heparin, enoxaparin) were administered intravenously via a catheter (PE-50 tubing) implanted in the jugular or femoral vein. In some studies, rats were administered a bolus of the test article (4 mL/kg) via the venous catheter immediately prior to initiation of intravenous infusion (4 mL/kg/h). The rats were subjected to the challenge 15 minutes post bolus/infusion initiation. All test article infusions continued to the end of the study period.
Administration of compound XLXI commenced 15 minutes prior to thrombotic challenge, with determination of thrombus mass at 60 minutes post challenge.

[2] = tested on: rat Factor XIa; experiment: Inhibition of rat Factor XIa compared with native human Factor XIa; format: biochemical; conditions: rat Factor XIa vs native human Factor XIa
[3] = target: Factor Xa (Homo sapiens, UniProt P00742); experiment: Factor Xa enzyme inhibition assay (purified enzyme); format: biochemical
Sequence of Factor Xa (P00742 235-488 limits assumed): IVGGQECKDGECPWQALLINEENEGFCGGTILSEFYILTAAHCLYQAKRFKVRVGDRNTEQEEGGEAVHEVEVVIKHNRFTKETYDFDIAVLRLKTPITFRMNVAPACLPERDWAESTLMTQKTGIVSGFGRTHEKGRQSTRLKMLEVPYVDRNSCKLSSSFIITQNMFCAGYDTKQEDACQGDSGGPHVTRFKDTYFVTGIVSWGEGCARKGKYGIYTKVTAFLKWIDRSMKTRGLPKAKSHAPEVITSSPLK
Sequence of Factor Xa (P00742 41-179 partner limits assumed): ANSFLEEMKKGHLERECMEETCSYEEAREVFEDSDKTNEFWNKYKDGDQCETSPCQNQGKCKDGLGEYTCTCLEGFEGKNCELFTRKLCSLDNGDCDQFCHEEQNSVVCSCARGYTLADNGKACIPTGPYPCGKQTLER

[4] = target: T1, native Factor XIa (Homo sapiens, UniProt P03951); experiment: Factor XIa enzyme inhibition assay (fluorogenic substrate pyroGlu-Pro-Arg-AMC); format: biochemical
T1 construct: cleavage generates the same light chain segment as is found for human Factor XIa protein; purchased Haematological Associates FXIA01
T1 sequence (P03951 388-625 limits assumed): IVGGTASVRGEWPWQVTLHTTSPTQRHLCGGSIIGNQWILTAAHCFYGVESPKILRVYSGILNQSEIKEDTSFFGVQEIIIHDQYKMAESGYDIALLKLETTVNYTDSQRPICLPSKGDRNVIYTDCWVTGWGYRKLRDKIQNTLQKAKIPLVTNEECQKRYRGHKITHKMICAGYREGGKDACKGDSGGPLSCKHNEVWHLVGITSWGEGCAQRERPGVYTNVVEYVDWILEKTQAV
T1 sequence (P03951 19-387 partner limits assumed): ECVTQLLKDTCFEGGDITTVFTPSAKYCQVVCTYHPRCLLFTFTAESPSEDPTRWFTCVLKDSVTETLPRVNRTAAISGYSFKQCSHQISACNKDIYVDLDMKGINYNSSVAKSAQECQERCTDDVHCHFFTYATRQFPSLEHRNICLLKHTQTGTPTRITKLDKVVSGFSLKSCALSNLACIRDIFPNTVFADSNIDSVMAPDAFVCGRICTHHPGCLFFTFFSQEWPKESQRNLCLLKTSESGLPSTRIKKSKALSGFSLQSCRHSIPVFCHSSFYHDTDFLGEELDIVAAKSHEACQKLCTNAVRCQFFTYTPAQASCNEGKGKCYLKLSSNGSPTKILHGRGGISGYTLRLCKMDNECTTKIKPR
Description: Potential inhibitors of Factor XIa were evaluated using a modification of the above assay. […] This substrate had the p-nitroanaline group replaced with 7-methylaminocoumarin (AMC). […] Inhibitors were tested by serial dilution over an appropriate range to yield a dose response curve for determination of the inhibitors' IC50 values. The assay mixture was incubated for 30 minutes at 30° C., and the fluorescent yield was measured using a PE-Wallac Victor 2 Plate Reader. Dose response curves were fit to Equation 1 in which A is the maximum inhibition, B is the minimum inhibition, C is the IC50, and D is the Hill coefficient.
Potential inhibitors of Factor XIa were evaluated using the following assay. […] This substrate had the p-nitroanaline group replaced with 7-methylaminocoumarin (AMC).
Inhibitors were tested by serial dilution over an appropriate range to yield a dose response curve for determination of the inhibitors' IC50 value. The assay mixture was incubated for 30 minutes at 30° C., and the fluorescent yield measured using a PE-Wallac VICTOR2™ Plate Reader. Dose response curves were fit to equation 1 below in which A is the maximum inhibition, B is the minimum inhibition, C is the IC50, and D is the Hill coefficient.

[5] = target: thrombin (Homo sapiens, UniProt P00734); experiment: Thrombin enzyme inhibition assay (purified enzyme); format: biochemical
[6] = Table 12, read-out: Thrombin IC50
[7] = Table 12, compounds of formula I (R^0 is 2-thiazole), read-out: FXIa IC50

Row | Compound | IC50 ([3]; Table 12, read-out: FXa IC50) [nM] | IC50 [5, 6] [nM] | IC50 [4, 7] [nM] | IC50 [4] [nM] | also measured
1 | CC(C)[C@H](NC(=O)[C@H](Cc1cccnc1)NC(=O)N[C@H](C)c1ccc(Br)cc1)C(=O)N[C@@H](CCCNC(=N)N)C(=O)c1nccs1 [Compound 22] | – | – | – | – | effect on thrombus formation ([1]; continuous intravenous administration begun 15 minutes before thrombotic challenge, thrombus mass at 60 minutes post challenge): suppressed the thrombus formation; total dose exposure at which efficacy was observed ([1]; continuous intravenous infusion, thrombus mass at 60 minutes post challenge): 1.4 mg/kg; efficacy in rat model of venous thrombosis ([1]; intravenous): statistically significant efficacy; change in thrombus size at the higher dose ([1]; total dose exposure 4.0 mg/kg compared with 1.4 mg/kg): no further decrease in thrombus size; specificity for rat Factor XIa relative to native human Factor XIa (fold less) [2]: 11 fold
2 | CCC(C)C(NC(=O)C(CC(C)C)NC(=O)NCc1ccc(Cl)c(Cl)c1)C(=O)NC(CCCNC(=N)N)C(=O)c1nccs1 (stereo not shown) | – | – | – | 78 | IC50 [3]: 84900 nM; IC50 [5]: 2650 nM
3 | CC(C)CC(NC(=O)NCc1ccc(Cl)c(Cl)c1)C(=O)NC(C(=O)NC(CCCNC(=N)N)C(=O)c1nccs1)C(C)C (stereo not shown) | 20000 | 615 | – | 64 | –
4 | COC(=O)c1cccc(CS(=O)(=O)NC(C(=O)NC(CC(C)C)C(=O)NC(CCCNC(=N)N)C(=O)c2nccs2)C2CCCCC2)c1 (stereo not shown) | 31 | 20 | 5 | – | –

Now from value to compound, other results behind:

Row | IC50 ([3]; Table 12, read-out: FXa IC50) [nM] | IC50 [5, 6] [nM] | IC50 [4, 7] [nM] | Compound | IC50 [4] [nM] | also measured
5 | 1190 | 253 | – | CC(C)C(NC(=O)C(O)c1ccccc1)C(=O)NC(CCCNC(=N)N)C(=O)c1nccs1 (stereo not shown) | – | –
6 | 2360 | 225 | 116 | CC(C)C(NC(=O)C(O)c1cccc(Cl)c1)C(=O)NC(CCCNC(=N)N)C(=O)c1nccs1 (stereo not shown) | – | –
